One data set relates to endometriosis. The following applies: cited from earlier work.
In a further data set the test system is endometriosis-like foci. The data set is described as follows: Rat model of endometriosis (autologous uterine horn fragment transplant). In kind it is in vivo. As to the method:
Endometriosis was induced in rats as described earlier (D'Antonio et al 2000). In brief, autologous uterine horn fragment was transplanted onto the inner surface of the abdominal wall in rat. Three weeks following transplantation, the size and the viability of the engrafted tissue was measured. One week after the confirmation of the tissue attachment, treatments were started. The control group received the vehicle, the PI3K inhibitor-1 was administered orally (po) at a single dose of 30 mg/kg per day. Treatment with the inhibitor was conducted for nine days, animals were anaesthetized 2 hr following the last treatment and blood samples were collected. Surface area of the endometriosis-like foci was measured. The endometriotic-like foci was removed for histology.

Data set [1] deals with endometriotic lesions from human endometrial tissue. The data set is described as follows: Xenograft nude mouse model of endometriosis. In kind it is in vivo, nude mice. The procedure:
Human endometrial tissue was injected in ovarectomized nude mice to establish the disease (Bruner-Tran et al. 2002). In brief, endometrial biopsies obtained from normal volunteers or from endometriotic patients were cut into small pieces and cultured in the presence of estradiol for 24 h. Treated tissues, were injected either subcutaneously or intraperitoneally into ovarectomized nude mice with estradiol implant. Within 2-4 days of injection, ectopic endometriotic lesions develop in animals. Treatment with either progesterone or PI3K inhibitor-1 was started 10 days following the injection of tissue. The compound was administered at a dose of 10 mg/kg and 30 mg/kg/animal for 28 days. […] Following the completion of treatment, animals were sacrificed, lesions developed from the transplanted tissue found in both subcutaneous and intraperitoneal sites, were measured (both size and number).

For data set [2], the system named is endometriotic cells (12Z cells). Briefly: Induction of cell death in endometriotic cells, crystal violet staining. The class given is cell-based, human. The following applies: for EC50: Homo sapiens, 12Z, crystal violet staining. From the text: It is well established that the glandular and stromal tissues from the eutopic endometrium implant in ectopic sites leading to endometriosis. Survival of the ectopic implants is due to a reduced cell death (apoptosis) of these implants, and is presumed to be due to increased expression of survival cell signaling pathways. Proteins or specific small molecule compounds that induce target-specific cell-death of ectopic endometriotic cells without affecting eutopic endometrium or other normal cells could be used as a treatment for eliminating endometriosis. In this regard, we examined the effect of PI3K inhibitor-1 (5-Quinoxalin-6-ylmethylene-thiazolidine-2,4-dione) on its ability to induce cell death of endometriotic cells (12Z cells), an immortalized human epithelial endometriotic cell (Zeitvogel et al. 2001). These cells grow in culture and secrete cytokines in response to TNFα that have been reported to be elevated in the peritoneal fluid of endometriotic patients. The 12Z cells were treated with PI3K inhibitor-1 for 24 h and cell death was measured by crystal violet staining. Since the peritoneal fluids contain elevated concentrations of TNFα, the inhibitor was also tested in the presence of this cytokine. Dead cells get detached from the tissue culture plate and washed away during staining with crystal violet. The intensity of the color will determine the extent of live cells present in the plate. […] TNFα alone had no effect of cell viability (data not shown).

Setting [3] is: 10 mg/kg × 28 days, listed as PI3K inhibitor.
[4] abbreviates: 30 mg/kg × 28 days, listed as PI3K inhibitor.

Read-outs that look alike come from different tables or passages of the source. Bounds are passed on as bounds.

`C#C[C@]1(O)CC[C@H]2[C@@H]3CCC4=Cc5oncc5C[C@]4(C)[C@H]3CC[C@@]21C` [Danazol]: the Recurrence rate with endometriosis (after up to 4 years) is recorded as 40%-50. For the same molecule, the “Patients suffering from pain with improved symptoms” value in the data set on endometriosis (endometriosis patients) is 66-100%.
Take `O=C1NC(=O)C(=Cc2ccc3nccnc3c2)S1` [PI3K inhibitor-1, 5-Quinoxalin-6-ylmethylene-thiazolidine-2,4-dione]: the “Regression of established endometriotic lesions” value with endometriosis-like foci (30 mg/kg per day po, nine days) is recorded as 64%. In data set [1] (10 mg/kg and 30 mg/kg for 28 days), the “Effect on the uterine weight and size of the animals” value is “no effect”. Besides, the “Lesion (% Progesterone) Compared to progesterone treated group, decrease” value in data set [1] (10 mg/kg × 28 days) was determined as 53% Decrease; in data set [1] (setting [3]), 53%; in data set [1] (30 mg/kg × 28 days), 80% Decrease; in data set [1] (setting [4]), 80%. Also, the “Lesion size, decrease” value turned out to be 10% Decrease in data set [1] (10 mg/kg × 28 days), 10% in data set [1] (setting [3]), 30% Decrease in data set [1] (30 mg/kg × 28 days) and 30% in data set [1] (setting [4]). Moreover, the “Extent of cell death induced, with versus without TNFα” value in data set [2] (24 h) was “greater in the presence of TNFα”. Besides, the “Amount of live cells in culture” value in data set [2] (24 h, either alone or in the presence of TNFα) is “reduce the amount of live cells in culture”. The EC50 in data set [2] (in the presence of 15 ng/ml of TNFα, 24 h, read-out: Concentration required to induce 50% cell death (EC50), +TNFα) is 6.4 µM; in data set [2] (inhibitor alone, 24 h, read-out: Concentration required to induce 50% cell death (EC50), Alone), over 10 µM.
For TNFα, the Cell viability result in data set [2] (TNFα alone, data not shown) is “no effect”.
Consider antide [reference compound], for which the “Regression of established endometriotic lesions” value with endometriosis-like foci (for comparison, data not shown) came out at 94%.
